Test results published in PubChem BioAssay (NCI).
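Growth conditions: 96-well plates. Treatment: test compound, 48 hours, 5 concentrations. Analysis: linear interpolation between bracketing concentrations; unreached endpoints set to highest concentration. Here, GI50 denotes the concentration required for 50% inhibition of growth. TGI: concentration producing complete growth inhibition.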

Assays:
Test in all cases: NCI-60 cell line screen, 48 h
OVCAR-8 ovarian = test system: OVCAR-8 ovarian
EKVX NSCLC = test system: EKVX NSCLC
CAKI-1 renal = test system: CAKI-1 renal
UO-31 renal = test system: UO-31 renal
SNB-75 CNS = test system: SNB-75 CNS
KM12 colon = test system: KM12 colon
HOP-62 NSCLC = test system: HOP-62 NSCLC
HCT-15 colon = test system: HCT-15 colon
RPMI-8226 leukemia = test system: RPMI-8226 leukemia
U251 CNS = test system: U251 CNS
MALME-3M melanoma = test system: MALME-3M melanoma
OVCAR-4 ovarian = test system: OVCAR-4 ovarian
SNB-19 CNS = test system: SNB-19 CNS
SK-OV-3 ovarian = test system: SK-OV-3 ovarian
IGROV1 ovarian = test system: IGROV1 ovarian
DMS 273 small cell lung = test system: DMS 273 small cell lung
HT29 colon = test system: HT29 colon
SK-MEL-28 melanoma = test system: SK-MEL-28 melanoma
NCI-H522 lung = test system: NCI-H522 lung
NCI-H23 lung = test system: NCI-H23 lung
SK-MEL-2 melanoma = test system: SK-MEL-2 melanoma
SR leukemia = test system: SR leukemia
MOLT-4 leukemia = test system: MOLT-4 leukemia
HCT-116 colon = test system: HCT-116 colon
LOX IMVI melanoma = test system: LOX IMVI melanoma
NCI-H226 lung = test system: NCI-H226 lung
M19-MEL melanoma = test system: M19-MEL melanoma
HL-60(TB) leukemia = test system: HL-60(TB) leukemia
A549 NSCLC = test system: A549 NSCLC
KM20L2 colon = test system: KM20L2 colon
SN12C renal = test system: SN12C renal
UACC-257 melanoma = test system: UACC-257 melanoma
M14 melanoma = test system: M14 melanoma
RXF 393 renal = test system: RXF 393 renal
LXFL 529 NSCLC = test system: LXFL 529 NSCLC
ACHN renal = test system: ACHN renal
CCRF-CEM leukemia = test system: CCRF-CEM leukemia
DMS 114 small cell lung = test system: DMS 114 small cell lung
DLD-1 colon = test system: DLD-1 colon
SF-295 CNS = test system: SF-295 CNS
SK-MEL-5 melanoma = test system: SK-MEL-5 melanoma
UACC-62 melanoma = test system: UACC-62 melanoma
HOP-18 NSCLC = test system: HOP-18 NSCLC
OVCAR-3 ovarian = test system: OVCAR-3 ovarian
NCI-H460 lung = test system: NCI-H460 lung
SNB-78 CNS = test system: SNB-78 CNS
HCC-2998 colon = test system: HCC-2998 colon
TK-10 renal = test system: TK-10 renal
SF-268 CNS = test system: SF-268 CNS
SF-539 CNS = test system: SF-539 CNS
COLO 205 colon = test system: COLO 205 colon
OVCAR-5 ovarian = test system: OVCAR-5 ovarian
HOP-92 NSCLC = test system: HOP-92 NSCLC
786-0 renal = test system: 786-0 renal

In the case of `FC(F)(F)c1nnn[n-]1.[Au+].c1ccc([PH+](c2ccccc2)c2ccccc2)cc1`, the GI50 (OVCAR-8 ovarian) was 2770 nM, the TGI (OVCAR-8 ovarian) was 9.18 µM and the GI50 (EKVX NSCLC) was 5.65 µM. The TGI (EKVX NSCLC) was 10.4 µM, the GI50 (CAKI-1 renal) was 3.6 µM and the TGI (CAKI-1 renal) was 14.2 µM. The GI50 (UO-31 renal) was 6.84 µM, the TGI (UO-31 renal) was 16.7 µM and the GI50 (SNB-75 CNS) was 8.64 µM. It also gave a TGI (SNB-75 CNS) of 22.1 µM, a GI50 (KM12 colon) of 13.2 µM and a TGI (KM12 colon) of 42.5 µM. For the same compound, the GI50 (HOP-62 NSCLC) was 19.7 µM, the TGI (HOP-62 NSCLC) was 34.2 µM and the GI50 (HCT-15 colon) was 2190 nM. For the same compound, the TGI (HCT-15 colon) was 6.92 µM, the GI50 (RPMI-8226 leukemia) was 1410 nM and the TGI (RPMI-8226 leukemia) was 4.63 µM. The GI50 (U251 CNS) was 3.04 µM, the TGI (U251 CNS) was 11.1 µM and the GI50 (MALME-3M melanoma) was 1580 nM. It also gave a TGI (MALME-3M melanoma) of 3.35 µM, a GI50 (OVCAR-4 ovarian) of 2090 nM and a TGI (OVCAR-4 ovarian) of 6.67 µM. It also gave a GI50 (SNB-19 CNS) of 4.07 µM, a TGI (SNB-19 CNS) of 13.6 µM and a GI50 (SK-OV-3 ovarian) of 15.6 µM. The TGI (SK-OV-3 ovarian) was 29 µM, the GI50 (IGROV1 ovarian) was 2690 nM and the TGI (IGROV1 ovarian) was 13.2 µM. It also gave a GI50 (DMS 273 small cell lung) of 5.62 µM, a TGI (DMS 273 small cell lung) of 54.7 µM and a GI50 (HT29 colon) of 4.25 µM. It also gave a TGI (HT29 colon) of 13.2 µM, a GI50 (SK-MEL-28 melanoma) of 2490 nM and a TGI (SK-MEL-28 melanoma) of 7.35 µM. The GI50 (NCI-H522 lung) was 1330 nM, the TGI (NCI-H522 lung) was 2810 nM and the GI50 (NCI-H23 lung) was 2790 nM. The TGI (NCI-H23 lung) was 9.11 µM, the GI50 (SK-MEL-2 melanoma) was 3.09 µM and the TGI (SK-MEL-2 melanoma) was 10.8 µM. It also gave a GI50 (SR leukemia) of 1300 nM, a TGI (SR leukemia) of 3.65 µM and a GI50 (MOLT-4 leukemia) of 1520 nM. The TGI (MOLT-4 leukemia) was 4.09 µM, the GI50 (HCT-116 colon) was 12.4 µM and the TGI (HCT-116 colon) was 24.9 µM. For the same compound, the GI50 (LOX IMVI melanoma) was 2260 nM, the TGI (LOX IMVI melanoma) was 7.64 µM and the GI50 (NCI-H226 lung) was 10.9 µM. The TGI (NCI-H226 lung) was 26.3 µM, the GI50 (M19-MEL melanoma) was 2740 nM and the TGI (M19-MEL melanoma) was 15.7 µM. For the same compound, the GI50 (HL-60(TB) leukemia) was 161 nM, the TGI (HL-60(TB) leukemia) was 420 nM and the GI50 (A549 NSCLC) was 19.3 µM. For the same compound, the TGI (A549 NSCLC) was 62.3 µM, the GI50 (KM20L2 colon) was 6.74 µM and the TGI (KM20L2 colon) was 16.6 µM. For the same compound, the GI50 (SN12C renal) was 6.34 µM, the TGI (SN12C renal) was 16.4 µM and the GI50 (UACC-257 melanoma) was 1820 nM. For the same compound, the TGI (UACC-257 melanoma) was 7.43 µM, the GI50 (M14 melanoma) was 1780 nM and the TGI (M14 melanoma) was 4.37 µM. For the same compound, the GI50 (RXF 393 renal) was 1520 nM, the TGI (RXF 393 renal) was 3.11 µM and the GI50 (LXFL 529 NSCLC) was 1480 nM. It also gave a TGI (LXFL 529 NSCLC) of 2820 nM, a GI50 (ACHN renal) of 4.63 µM and a TGI (ACHN renal) of 9.84 µM. For the same compound, the GI50 (CCRF-CEM leukemia) was 449 nM, the TGI (CCRF-CEM leukemia) was 2910 nM and the GI50 (DMS 114 small cell lung) was 1950 nM. The TGI (DMS 114 small cell lung) was 15 µM, the GI50 (DLD-1 colon) was 1950 nM and the TGI (DLD-1 colon) was 5.04 µM. It also gave a GI50 (SF-295 CNS) of 11 µM, a TGI (SF-295 CNS) of 41.3 µM and a GI50 (SK-MEL-5 melanoma) of 2000 nM. For the same compound, the TGI (SK-MEL-5 melanoma) was 7.15 µM, the GI50 (UACC-62 melanoma) was 2170 nM and the TGI (UACC-62 melanoma) was 10.7 µM. For the same compound, the GI50 (HOP-18 NSCLC) was 8.67 µM, the TGI (HOP-18 NSCLC) was 20.5 µM and the GI50 (OVCAR-3 ovarian) was 2890 nM. It also gave a TGI (OVCAR-3 ovarian) of 7.49 µM, a GI50 (NCI-H460 lung) of 16.6 µM and a TGI (NCI-H460 lung) of 50.4 µM. The GI50 (SNB-78 CNS) was 6.66 µM, the TGI (SNB-78 CNS) was over 62.7 µM and the GI50 (HCC-2998 colon) was 10.3 µM. The TGI (HCC-2998 colon) was 22.3 µM, the GI50 (TK-10 renal) was 3.51 µM and the TGI (TK-10 renal) was 9.27 µM. For the same compound, the GI50 (SF-268 CNS) was 4.2 µM, the TGI (SF-268 CNS) was 13.1 µM and the GI50 (SF-539 CNS) was 5.18 µM. The TGI (SF-539 CNS) was 19.4 µM, the GI50 (COLO 205 colon) was 2620 nM and the TGI (COLO 205 colon) was 6.94 µM. It also gave a GI50 (OVCAR-5 ovarian) of 16.1 µM, a TGI (OVCAR-5 ovarian) of 30 µM and a GI50 (HOP-92 NSCLC) of 2380 nM. For the same compound, the TGI (HOP-92 NSCLC) was 4.59 µM, the GI50 (786-0 renal) was 1840 nM and the TGI (786-0 renal) was 3.55 µM.
